Experimental data as given in patent publication US10189863B2, “5,6-dihydro-4H-benzo[b]thieno-[2,3-d]azepine derivatives” (PULMOCIDE LIMITED, priority 2014, dated 2019).

What was measured:
HEp2 cells = assay: Cell viability: resazurin assay; type: cell-based, human; settings: 5 days
In short: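 HEp2 cells in 5% FBS DMEM exposed to compounds (0.5% DMSO final) for 5 days at 37 °C/5% CO2, then resazurin added for 6 h; fluorescence read at 545/590 nm. Percent viability loss calculated versus 0.5% DMSO vehicle, with increases shown as negative values; CC50 taken from concentration-response curves where appropriate.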

RSV A2 = assay: RSV infection in mice: virus titre in lung (plaque assay); type: in vivo, mice (male BALB/C); settings: for Virus titre in lung, Geometric mean / Virus titre in lung, Median: mice, day 4
Procedure: Non-fasted mice (male BALB/C, 20-30 g) were infected intranasally with RSV A2 or virus diluent (DMEM, 2% FBS, 12.5% sucrose) under isoflurane (5% in O2) anaesthesia. The A2 strain of RSV (50 μL of 1.3×10^6 PFU/mL: final 0.65×10^5 PFU/mouse) was instilled into each nostril in a drop wise fashion alternating between the two until a volume of 50 μL was delivered. Following infection each animal was weighed on a daily basis to monitor changes. Test compounds were dissolved in 100% DMSO (at 20 mg/mL and/or 2 mg/mL), then diluted at 1:10 in isotonic saline to achieve 10% DMSO in all treatments. Formulations were then sonicated to produce a suspension. The suspension was administered intratracheally (20 μL) with a FMJ-250 PennCentury device or intranasally (40 μL) with a pipette on 1 day and 1 hr before infection (day 0), and then on days 1, 2 and 3 post infection. Four days after RSV challenge, the animals were euthanised (by intraperitoneal injection of a pentobarbitone overdose), the trachea cannulated and BALF extracted for total and differential cell counts. Following BALF collection, the right lung was removed from each animal and homogenised in ice-cold Dulbecco's modified Eagles medium (using 10 times the lung weight of DMEM containing 1% BSA and 25% sucrose) for 2×20 second bursts. The homogenate was then transferred into a sterile tube and spun at 4° C. (2000 rpm; for 5 min). The clarified homogenate was transferred to a chilled cryovial, snap frozen and stored at −80° C. The supernatants from lung homogenates were used for Plaque assay.
HEp2 cells were grown in 24-well plates (Corning) for 48 hr prior to infection in DMEM containing 10% FBS until they attained 100% confluency. Lung homogenate was thawed at RT and ten-fold serial dilutions were prepared in serum-free DMEM. The growth medium from HEp2 cells was aspirated and replaced with 300 μL of serially diluted lung homogenate and left to infect (4 hr; 37° C./5% CO2). The infectious media were aspirated and replaced with Plaque Assay Overlay (500 μL; 1% methylcellulose in MEM, 2% FBS, 1% Pen Strep, 0.5 μg/mL amphotericin B), and left for 7 days (37° C./5% CO2). Cells were fixed with ice-cold methanol for 10 min and blocked with 5% powdered milk (Marvel) in 0.05% PBS-tween (blocking buffer) for 1 hr at RT.
Anti-RSV F-protein antibody [2F7] (Abcam: ab43812) was diluted to a 1:100 concentration in blocking buffer and added to cells for 1 hr at RT with shaking. Cells were washed using PBS and then incubated with the secondary antibody (HRP conjugated goat anti-mouse secondary antibody (Dako P044701-2) diluted in 1:400 with blocking buffer) for 1 hr at RT with shaking. The secondary antibody solution was removed and cells were washed with PBS before the metal-enhanced development substrate DAB was prepared in ultra-pure water (according to manufacturer's instructions). Each well received 300 μL of development substrate (sigmaFAST D0426) until plaques were visible. Plaques were counted by eye and confirmed using light microscopy, allowing the calculation of plaque forming units per mL of lung homogenate supernatant.

hRSV/A/Long = assay: RSV infection in cotton rats: virus titre in lung (plaque assay); type: in vivo, Sigmodon hispidus cotton rats; settings: for Virus titre in lung, Geometric mean: cotton rats, intranasal, day 4
[1] = intranasal, Drug Conc 0.2 mg/mL
[2] = intranasal, Drug Conc 2 mg/mL, LOQ 1.5
[3] = intratracheal, Drug Conc 0.2 mg/mL, LOQ 1.5

Cc1cnc(N2CC3(CCOCC3)C2)c(C(=O)Nc2ccc(C(=O)N3CCc4cc(C(=O)Nc5c(C)cccc5F)sc4-c4ccccc43)cc2)c1 [Example 5, N-(2-Fluoro-6-methylphenyl)-6-(4-(5-methyl-2-(7-oxa-2-azaspiro[3.5]nonan-2-yl)nicotinamido)benzoyl)-5,6-dihydro-4H-benzo[b]thieno[2,3-d]azepine-2-carboxamide]
CC50 (HEp2 cells): > 14 µM
Effect on virus titre in the lungs (in words) (RSV A2; RSV A2 infected mice): completely inhibited virus titre
Virus titre in lung, Geometric mean (RSV A2; [1]): 2.4 log PFU/lung
Virus titre in lung, Median (RSV A2; [1]): 2.5 log PFU/lung
Virus titre in lung, Geometric mean (RSV A2; [2]): <1.5^2 log PFU/lung
Virus titre in lung, Median (RSV A2; [2]): <1.5^2 log PFU/lung
Virus titre in lung, Geometric mean (RSV A2; [3]): <1.5^2 log PFU/lung
Virus titre in lung, Median (RSV A2; [3]): <1.5^2 log PFU/lung
Effect on virus titre in the lungs (in words) (hRSV/A/Long; RSV A2 infected cotton rats): completely inhibited virus titre
Virus titre in lung, Geometric mean (hRSV/A/Long; Drug Conc 1.0 mg/mL): 4.5 log, PFU/lung
Virus titre in lung, Geometric mean (hRSV/A/Long; Drug Conc 3.3 mg/mL, LOQ 2.3): <2.3^2 log, PFU/lung
Effect on virus titre in lung homogenates (in words) (hRSV/A/Long; hRSV/A/Long infected cotton rats on day4): potent dose-dependent inhibition of virus titre
